{"source": "patent US9416149B2", "about": "“Methods to modulate Rac1 import and to treat pulmonary fibrosis” (University of Iowa Research Foundation, priority 2013, dated 2016)", "key": {"Macrophages [1]": {"test_system": "Macrophages", "test": "H2O2 generation in macrophages exposed to chrysotile asbestos (pHPA assay)", "assay_type": "cell-based", "description": "(§1) Extracellular H2O2 production was determined fluorometrically, as previously described (He, C., et al., Mitochondrial Cu,Zn-Superoxide Dismutase Mediates Pulmonary Fibrosis by Augmenting H2O2 Generation. J Biol Chem, 2011. 286(17): p. 15597-607). Briefly, cells were incubated in phenol-red free Hanks' balanced salt solution supplemented with 6.5 mM glucose, 1 mM HEPES, 6 mM sodium bicarbonate, 1.6 mM pHPA, and 0.95 μg/ml HRP. Fluorescence of the pHPA-dimer was measured using a spectrofluorometer at excitation of 320 nm and emission of 400 nm. Mitochondrial H2O2 was measured by resuspending mitochondria in phenol-red free Hanks' balanced salt solution supplemented with 6.5 mM glucose, 1 mM HEPES, 6 mM sodium bicarbonate, 1.6 mM pHPA, 0.95 μg/ml HRP and 5 mM α-ketoglutarate."}, "Macrophages [2]": {"test_system": "Macrophages", "test": "Mitochondrial H2O2 generation in macrophages exposed to chrysotile asbestos (pHPA assay)", "assay_type": "cell-based", "settings": "Example 1, FIG. 2; DGBP 10 mM; chrysotile asbestos 10 μg/cm^2; isolated mitochondria", "description": "as §1\n(§2) Mitochondria were isolated as previously described (He, C., et al., Mitochondrial Cu,Zn-Superoxide Dismutase Mediates Pulmonary Fibrosis by Augmenting H2O2 Generation. J Biol Chem, 2011. 286(17): p. 15597-607)."}, "Rac1": {"test_system": "Rac1", "test": "Mitochondrial Rac1 import, immunoblot for Flag-Rac1 in isolated mitochondria of transfected macrophages", "assay_type": "cell-based", "settings": "for localization of Rac1 to the mitochondria: Example 2, FIG. 8D", "description": "as §2\n(§3) Whole cells lysates and sub-cellular fractions were separated by SDS-PAGE and transferred to PVDF membranes. Immunoblot analyses on the membranes were performed with the designated antibodies followed by the appropriate secondary antibody cross-linked to HRP.\n(§4) To determine if DGBP inhibits Rac1 import into mitochondria, we exposed macrophages to vehicle (water) or DGBP in cells transfected with an empty control or a wild-type Rac1 expression vector (pRK-Flag-Rac1). […] To confirm that DGBP reduced Rac1 import secondary to inhibiting geranylgeranylation, an immunoblot analysis for Rap 1A, which only recognizes non-geranylgeranylated proteins and is indicative of reduced GGPP levels was performed (Weivoda, M. M. and R. J. Hohl, The effects of direct inhibition of geranylgeranyl pyrophosphate synthase on osteoblast differentiation. J Cell Biochem, 2011. 112(6): p. 1506-13, Wasko, B. M., A. Dudakovic, and R. J. Hohl, Bisphosphonates induce autophagy by depleting geranylgeranyl diphosphate. J Pharmacol Exp Ther, 2011. 337(2): p. 540-6). […] To examine whether DGBP altered H2O2 levels, cells were treated similarly as above described with DGBP (10 mM)."}, "Rap1A": {"test_system": "Rap1A", "test": "Geranylgeranylation, immunoblot for non-geranylgeranylated Rap1A in macrophages", "assay_type": "cell-based", "description": "as §3, §4"}, "[3]": {"test_system": "chrysotile-induced pulmonary fibrosis", "test": "Chrysotile asbestos-induced pulmonary fibrosis in mice, DGBP via subcutaneous osmotic pump", "assay_type": "in vivo", "description": "To determine the biological relevance of DGBP on oxidative stress in vivo, WT mice were exposed to asbestos (100 μg i.t.). The mice were treated with vehicle or DGBP via administration utilizing a subcutaneous osmotic pump. After 21 days, the mice were euthanized, and lung oxidative stress was determined by GSH assay.\n(§5) Wild-type C57Bl/6 mice were from Jackson Laboratories (Bar Habor, Me.). The University of Iowa Institutional Animal Care and Use Committee approved all protocols. After equilibration, osmotic pumps (Alzet, Cupertino, Calif.) containing either vehicle (water) or DGBP (0.2 mg/kg/day) were implanted subcutaneously, as describe previously (Erickson, J. R., et al., A dynamic pathway for calcium-independent activation of CaMKII by methionine oxidation. Cell, 2008. 133(3): p. 462-74). Bleomycin (2.0 U/kg) or chrysotile ([…]) was administered intratracheally. Mice were euthanized and fibrosis determined as previously described (Osborn-Heaford, H. L., et al., Mitochondrial Rac1 GTPase Import and Electron Transfer from Cytochrome c Are Required for Pulmonary Fibrosis. The Journal of biological chemistry, 2012. 287(5): p. 3301-12, He, C., et al., Accelerated Development of Pulmonary Fibrosis via Cu,Zn-superoxide Dismutase-induced Alternative Activation of Macrophages. J Biol Chem, 2013. 288(28): p. 20745-57).\nas §2\n(§6) Lung tissue was dried to stable weight and acid hydrolyzed with 6N HCl for 24 h at 120° C. Hydroxyproline concentration normalized, to dry weight of the lung, was determined as described previously (Osborn-Heaford, H. L., et al., Mitochondrial Rac1 GTPase Import and Electron Transfer from Cytochrome c Are Required for Pulmonary Fibrosis. The Journal of biological chemistry, 2012. 287(5): p. 3301-12).\n(§7) Reduced and oxidized glutathione in the lung were determined as described previously (He, C., et al., Mitochondrial Cu,Zn-Superoxide Dismutase Mediates Pulmonary Fibrosis by Augmenting H2O2 Generation. J Biol Chem, 2011. 286(17): p. 15597-607).\nas §3\nTo determine if geranylgeranylation of Rac1 is associated with other forms of pulmonary fibrosis, the role of DGBP in modulating chrysotile-induced pulmonary fibrosis was tested. WT mice with subcutaneous osmotic pumps delivering vehicle or DGBP were exposed to chrysotile as previously described (He, C., et al., Mitochondrial Cu,Zn-Superoxide Dismutase Mediates Pulmonary Fibrosis by Augmenting H2O2 Generation. J Biol Chem, 2011. 286(17): p. 15597-607, Osborn-Heaford, H. L., et al., Mitochondrial Rac1 GTPase Import and Electron Transfer from Cytochrome c Are Required for Pulmonary Fibrosis. The Journal of biological chemistry, 2012. 287(5): p. 3301-12, Murthy, S., et al., Rac1-mediated Mitochondrial H2O2 Generation Regulates MMP-9 Gene Expression in Macrophages via Inhibition of SP-1 and AP-1. J Biol Chem, 2010. 285(32): p. 25062-73). It was first determined if DGBP altered mitochondrial Rac1 localization in BAL cells. Alveolar macrophages were obtained by BAL 21 days after chrysotile exposure. […] Lung oxidative stress was also evaluated. […]"}, "[4]": {"test_system": "bleomycin-induced pulmonary fibrosis", "test": "Bleomycin-induced pulmonary fibrosis in mice, DGBP via subcutaneous osmotic pump", "assay_type": "in vivo", "description": "as §5, §2, §6, §7, §3\nActive TGF-β in BAL fluid was measured by ELISA (R&D, Minneapolis, Minn.), according to manufacturer's instructions.\nBecause bleomycin increased mitochondrial oxidative stress in alveolar macrophages in vivo, it was next evaluated if bleomycin modulates Rac1 mitochondrial import. Osmotic pumps containing either vehicle (water) or DGBP were implanted subcutaneously in WT mice. DGBP was delivered at a dose of 0.2 mg/kg/day. Mice were exposed to saline or bleomycin the following day, and BAL was performed 21 days later to obtain alveolar macrophages. Mitochondria were isolated to investigate Rac1 localization."}, "[5]": {"test_system": "bleomycin-induced pulmonary fibrosis", "test": "Progression of bleomycin-induced pulmonary fibrosis in mice, osmotic pumps installed seven days after bleomycin", "assay_type": "in vivo", "description": "as §5\nLung tissue was dried to stable weight and acid hydrolyzed with 6N HCl for 24 h at 120° C. […]"}, "THP-1 cells": {"test_system": "THP-1 cells", "test": "Mitochondrial H2O2 generation in THP-1 cells exposed to chrysotile (pHPA assay)", "assay_type": "cell-based", "settings": "FIG. 11F, DGBP 10 μM overnight, chrysotile 10 μg/cm^2 for 1 h", "description": "(§8) THP-1, MLE-12, and HLF-1 cell lines were obtained from American Type Culture Collection (Manassas, Va.). Cells were maintained in RPMI-1640, Hites, or F-12K media supplemented with fetal bovine serum and penicillin/streptomycin. All experiments were performed with media supplemented with 0.5% serum.\nas §1\n(§9) Mitochondria were isolated as previously described (He, C., et al., Mitochondrial Cu,Zn-Superoxide Dismutase Mediates Pulmonary Fibrosis by Augmenting H2O2 Generation. J Biol Chem, 2011. 286(17): p. 15597-607). […]"}, "MLE-12 cells": {"test_system": "MLE-12 cells", "test": "Mitochondrial H2O2 generation in MLE-12 cells exposed to chrysotile (pHPA assay)", "assay_type": "cell-based", "settings": "FIG. 11G, DGBP 10 μM overnight, chrysotile 10 μg/cm^2 for 1 h", "description": "as §8, §1, §9"}, "HLF-1 cells": {"test_system": "HLF-1 cells", "test": "Mitochondrial H2O2 generation in HLF-1 cells exposed to chrysotile (pHPA assay)", "assay_type": "cell-based", "settings": "FIG. 11H, DGBP 10 μM overnight, presence or absence of chrysotile", "description": "as §8, §1, §9"}, "[6]": {"test": "Apparent toxicity at the concentrations and doses used in the studies", "settings": "in vitro or in vivo"}}}
{"substance": "digeranyl bisphosphonate [DGBP]", "values": [{"measurement": "H2O2 generation", "setting": "Macrophages [1]; Example 1, FIG. 1, DGBP 10 mM, chrysotile asbestos 10 μg/cm^2", "result": "significant reduction in H2O2 to control levels"}, {"measurement": "H2O2 levels", "setting": "Macrophages [1]; Example 2, FIG. 8F, DGBP 10 mM overnight, presence and absence of chrysotile 10 μg/cm^2, 90 min", "result": "decreased H2O2 to control levels"}, {"measurement": "mitochondrial H2O2 generation", "setting": "Macrophages [2]", "result": "abrogated asbestos-induced mitochondrial H2O2 generation below control levels"}, {"measurement": "mitochondrial Rac1 import", "setting": "Rac1; Example 1, FIG. 3A, chrysotile asbestos 10 μg/cm^2 for 1 h", "result": "inhibited mitochondrial Rac1 import in a dose-dependent manner"}, {"measurement": "localization of Rac1 to the mitochondria", "setting": "Rac1; 1 mM DGBP overnight, chrysotile 10 μg/cm^2 for 90 min", "result": "Chrysotile induced localization of Rac1 to the mitochondria"}, {"measurement": "localization of Rac1 to the mitochondria", "setting": "Rac1; 10 mM DGBP overnight, presence or absence of chrysotile", "result": "Rac1 was absent from the mitochondria"}, {"measurement": "geranylgeranylation (Rap1A immunoblot)", "setting": "Rap1A; Example 1, FIG. 3B, whole cell lysates", "result": "inhibition of geranylgeranylation"}, {"measurement": "Rap1A geranylgeranylation", "setting": "Rap1A; Example 2, FIG. 8E, 10 mM DGBP, isolated cytoplasm", "result": "impaired Rap1A geranylgeranylation"}, {"measurement": "lung oxidative stress (GSH assay)", "setting": "[3]; Example 1, FIG. 4, asbestos 100 μg i.t., after 21 days, vs vehicle", "result": "significant reduction in lung oxidative stress"}, {"measurement": "pulmonary fibrosis (hydroxyproline assay)", "setting": "[3]; Example 1, FIG. 5, chrysotile asbestos 100 μg i.t., 21 days, vs vehicle", "result": "significantly less pulmonary fibrosis"}, {"measurement": "oxidized GSH (% GSSG) in the lung, vehicle relative to DGBP", "setting": "[3]; FIG. 11B, chrysotile, 21 days", "result": 2.5, "unit": "fold"}, {"measurement": "lung histology (Masson's trichrome)", "setting": "[3]; FIG. 11D, chrysotile, after 21 days", "result": "essentially normal"}, {"measurement": "lung hydroxyproline", "setting": "[3]; FIG. 11E, chrysotile, after 21 days, water vs DGBP", "result": "confirmed by hydroxyproline assay"}, {"measurement": "pulmonary fibrosis (hydroxyproline assay)", "setting": "[4]; Example 1, FIG. 6, bleomycin 2.0 U/kg i.t., 21 days, vs vehicle", "result": "significantly less pulmonary fibrosis"}, {"measurement": "immunoreactive Rac1 in alveolar macrophage mitochondria", "setting": "[4]; FIG. 9B, DGBP 0.2 mg/kg/day, bleomycin 2.0 U/kg, BAL 21 days later", "result": "significant reduction in immunoreactive Rac1 in mitochondria"}, {"measurement": "non-geranylgeranylated Rap1A in BAL cells", "setting": "[4]; FIG. 9B, DGBP 0.2 mg/kg/day, immunoblot", "result": "non-geranylgeranylated Rap 1A was increased"}, {"measurement": "oxidized GSH (% GSSG) in lung, vehicle vs DGBP", "setting": "[4]; FIG. 9C, bleomycin, after 21 days", "result": "significantly higher oxidized GSH (% GSSG) than the lungs of mice that received DGBP"}, {"measurement": "active TGF-β in BAL fluid, vehicle relative to DGBP", "setting": "[4]; FIG. 9D, bleomycin, DGBP 0.2 mg/kg/day, ELISA", "result": "greater than 5 fold"}, {"measurement": "lung histology (Masson's trichrome)", "setting": "[4]; FIG. 9F, bleomycin", "result": "normal lung architecture"}, {"measurement": "lung hydroxyproline", "setting": "[4]; FIG. 9G, following bleomycin exposure, vs vehicle", "result": "significantly less hydroxyproline"}, {"measurement": "lung collagen deposition (Masson's trichrome)", "setting": "[5]; FIG. 10C, DGBP 0.2 mg/kg/day from seven days after bleomycin, 21 days after bleomycin", "result": "small patches of collagen deposition, but there was significantly less collagen compared to mice that received vehicle"}, {"measurement": "lung hydroxyproline content", "setting": "[5]; FIG. 10D, DGBP from seven days after bleomycin, vs vehicle", "result": "significantly less hydroxyproline"}, {"measurement": "mitochondrial H2O2 generation", "setting": "THP-1 cells", "result": "reduced chrysotile-induced H2O2 significantly at all time points"}, {"measurement": "mitochondrial H2O2 generation", "setting": "MLE-12 cells", "result": "increased H2O2 generation in cells exposed to chrysotile"}, {"measurement": "mitochondrial H2O2 generation", "setting": "HLF-1 cells", "result": "increased H2O2 in the presence or absence of chrysotile"}, {"measurement": "apparent toxicity", "setting": "[6]", "result": "not associated with apparent toxicity in vitro or in vivo"}]}
